Source: the supplement of paper PMC10307832

Tests used:
Test in all cases: relative viability (nuclei count vs DMSO), 5 days (fraction); higher = more cells survive
[1] = compound: Cc1ccc(NC(=O)c2ccc(CN3CCN(C)CC3)cc2)cc1Nc1nccc(-c2cccnc2)n1 [Imatinib] + CC(=O)Nc1cccc(-n2c(=O)n(C3CC3)c(=O)c3c(Nc4ccc(I)cc4F)n(C)c(=O)c(C)c32)c1 [Trametinib] (partner 0.02 µM)
In short: (§1)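 After 5 days of treatment, lung cancer cells in 1536-well plates were fixed and stained in a single step (final 0.05% Triton X-100, 1% formaldehyde, 1 ug/ml Hoechst) and their nuclei counted on 4× images. Treatment had been applied by pin tool the day after seeding as one drug alone or as a fixed anchor-drug dose with five library-drug doses (not always all listed) in √10 steps. Relative viability is the nuclei count of treated wells divided by that of vehicle wells, and values are medians of duplicate plates.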

[2] = compound: Cc1ccc(NC(=O)c2ccc(CN3CCN(C)CC3)cc2)cc1Nc1nccc(-c2cccnc2)n1 [Imatinib] + Cc1cc(Nc2cc(N3CCN(C)CC3)nc(Sc3ccc(NC(=O)C4CC4)cc3)n2)n[nH]1 [Tozasertib] (partner 0.1 µM)
In short: as §1

[3] = compound: Cc1ccc(NC(=O)c2ccc(CN3CCN(C)CC3)cc2)cc1Nc1nccc(-c2cccnc2)n1 [Imatinib] + N=C(N)NC(=N)NCCc1ccccc1 [Phenformin] (partner 250 µM)
In short: as §1

[4] = compound: Cc1ccc(NC(=O)c2ccc(CN3CCN(C)CC3)cc2)cc1Nc1nccc(-c2cccnc2)n1 [Imatinib] + NC(=O)Nc1cc(-c2cccc(F)c2)sc1C(=O)N[C@H]1CCCNC1 [AZD7762] (partner 0.2 µM)
In short: as §1

Cell Line | relative viability ([1]; first compound 0.02 µM) | relative viability ([1]; first compound 0.06325 µM) | relative viability ([1]; first compound 0.2 µM) | relative viability ([1]; first compound 0.6325 µM) | relative viability ([1]; first compound 2 µM) | relative viability ([2]; first compound 0.02 µM) | relative viability ([2]; first compound 0.06325 µM) | relative viability ([2]; first compound 0.2 µM) | relative viability ([2]; first compound 0.6325 µM) | relative viability ([2]; first compound 2 µM) | relative viability ([3]; first compound 0.02 µM) | relative viability ([3]; first compound 0.06325 µM) | relative viability ([3]; first compound 0.2 µM) | relative viability ([3]; first compound 0.6325 µM) | relative viability ([3]; first compound 2 µM) | relative viability ([4]; first compound 0.02 µM) | relative viability ([4]; first compound 0.6325 µM) | relative viability ([4]; first compound 2 µM) | relative viability ([4]; first compound 0.06325 µM) | relative viability ([4]; first compound 0.2 µM)
NCI-H1650 | 0.579 | 0.471 | 0.404 | 0.635 | 0.559 | 0.449 | 0.405 | 0.337 | 0.37 | 0.303 | 0.499 | 0.473 | 0.329 | 0.388 | 0.385 |  |  |  |  | 
UMC-11 | 0.706 | 0.736 | 0.643 | 0.896 | 0.717 | 0.192 | 0.205 | 0.216 | 0.211 | 0.208 | 0.331 | 0.327 | 0.322 | 0.332 | 0.294 |  |  |  |  | 
EPLC-272H | 0.256 |  |  | 0.295 | 0.268 | 0.366 |  | 0.256 | 0.258 | 0.207 | 0.308 |  | 0.273 | 0.322 | 0.442 | 0.218 | 0.156 | 0.15 |  | 
NCI-H2342 | 0.847 | 0.814 | 0.869 | 0.828 | 0.853 | 0.6 | 0.511 | 0.499 | 0.502 | 0.494 | 0.633 | 0.57 | 0.587 | 0.573 | 0.561 | 0.434 | 0.455 | 0.553 | 0.493 | 0.443
ABC-1 |  |  |  |  |  | 0.211 |  | 0.221 | 0.185 | 0.141 | 0.252 |  | 0.224 | 0.305 | 0.187 | 0.821 |  | 0.726 |  | 0.786
LOU-NH91 | 0.801 | 0.782 | 0.819 | 0.83 | 0.754 | 0.636 | 0.833 | 0.761 | 0.596 | 0.667 | 0.679 | 0.693 | 0.675 | 0.679 | 0.665 | 0.784 | 0.809 | 0.749 | 0.829 | 0.81
SW 900 | 0.776 | 0.625 | 0.641 | 0.756 | 0.76 | 0.51 | 0.404 | 0.712 | 0.469 | 0.348 | 0.57 | 0.474 | 0.821 | 0.578 | 0.499 | 0.784 | 0.619 | 0.529 | 0.572 | 0.605
NCI-H838 | 0.504 | 0.549 | 0.608 | 0.569 | 0.486 | 0.241 | 0.318 | 0.28 | 0.307 | 0.275 | 0.555 | 0.668 | 0.64 | 0.619 | 0.596 | 1.04 | 0.954 | 1.02 | 1.03 | 0.961
SK-LU-1 | 0.465 | 0.485 | 0.52 | 0.514 | 0.529 | 0.336 | 0.322 | 0.316 | 0.303 | 0.28 | 0.56 | 0.499 | 0.499 | 0.472 | 0.475 |  |  |  |  | 
HCC-827 | 0.483 | 0.517 | 0.646 | 0.562 | 0.515 | 0.404 | 0.486 | 0.407 | 0.407 | 0.421 | 0.432 | 0.481 | 0.475 | 0.37 | 0.403 | 0.189 | 0.17 | 0.157 | 0.215 | 0.195
PC-3 [JPC-3] | 0.719 |  |  | 0.724 | 0.621 | 0.911 |  | 0.855 | 0.879 | 0.789 | 0.474 |  | 0.485 | 0.454 | 0.414 | 0.979 | 0.921 | 0.635 |  | 
NCI-H2228 | 0.663 | 0.338 | 0.467 | 0.507 | 0.605 | 0.196 |  | 0.205 | 0.186 | 0.203 | 0.335 |  | 0.268 | 0.277 | 0.272 |  |  |  |  | 
NCI-H1703 |  |  |  |  |  |  |  |  |  |  |  |  |  |  |  | 0.135 | 0.124 | 0.114 |  | 0.103
HCC-366 | 0.423 | 0.346 | 0.45 | 0.321 | 0.432 | 0.193 |  | 0.109 | 0.0574 | 0.0718 | 0.64 |  | 0.637 | 0.631 | 0.579 | 0.367 | 0.208 | 0.181 | 0.364 | 0.288
NCI-H1355 | 0.494 |  | 0.436 |  | 0.411 | 0.589 |  | 0.51 | 0.395 | 0.349 | 0.493 |  | 0.461 | 0.409 | 0.391 | 0.988 | 0.63 | 0.571 |  | 0.83
NCI-H1563 |  |  |  |  |  |  |  |  |  |  | 0.634 | 0.648 | 0.658 | 0.607 | 0.625 |  |  |  |  | 
HARA | 0.583 | 0.574 | 0.633 | 0.467 | 0.727 | 0.083 |  | 0.107 | 0.0993 | 0.101 | 0.57 |  | 0.439 | 0.39 | 0.387 | 0.361 | 0.232 | 0.304 | 0.267 | 0.292
